In data set [1] the test system is full length SMN2 minigene mRNA containing SMN2 exon 7. Briefly: SMN2 minigene mRNA splicing RT-qPCR assay in cultured cells. Format: cell-based, human. Particulars: Homo sapiens, HEK293-H; HEK293H cells stably transfected with SMN2-A minigene, 24 hours, 7-point concentration curve; concentration giving 1.5-fold full length SMN2 mRNA vs vehicle; read-out: EC1.5x for production of full length SMN2 mRNA. The gist of the method:
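Read-out is minigene FL mRNA (exon 7 included) relative to vehicle, from efficiency-corrected ΔΔCt with GAPDH normalisation. Primers and probe span exon 7, exon 8 and luciferase, so endogenous SMN is not detected. Stable SMN2-A minigene HEK293H cells, 24 h compound exposure at 37 °C, 7-point curve in duplicate.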

A further data set concerns Smn protein. In words: Smn protein assay in cultured cells (SMN HTRF). The data set is classed as cell-based, human. Conditions: SMA patient fibroblast cells (GM03813), 48 hours; for EC1.5x for Smn protein expression: 7-point concentration curve, concentration producing 1.5 times Smn protein vs DMSO vehicle; for maximum fold (Fold) increase of Smn protein: 7-point concentration data, relative to vehicle control. The procedure, abridged: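 Smn protein measured by HTRF (anti-SMN d2/kryptate) in lysates of SMA patient fibroblasts after 48 h compound treatment, 7-point 3.16-fold dilutions, triplicates. The 665/620 nm ratio is blank-corrected to ΔF, then divided by the vehicle ΔF to give fold increase.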
(Time-resolved FRET reads energy transfer from a long-lived donor to a nearby acceptor.)

From patent publication US9399649B2, “Compounds for treating spinal muscular atrophy” (PTC Therapeutics Inc., priority 2012, dated 2016) come the findings set out here.

A value given as a limit tells only on which side of the number the result lay.

What is called melting point is the temperature of the solid-liquid transition. As for `CCN1CCN(c2ccc3cc(-c4cn5cc(C)nc(C)c5n4)oc(=O)c3c2)CC1` [Cpd 73, 3-(6,8-dimethylimidazo[1,2-a]pyrazin-2-yl)-7-(4-ethylpiperazin-1-yl)-1H-isochromen-1-one], the melting point is 238 to 240 °C. Further, in data set [1], the EC (1.5-fold) was at most 0.1 µM. For the same compound, in the data set on Smn protein, the “EC1.5x for Smn protein expression” value is on record as “**** (an EC1.5×≦0.3 nM is indicated by four stars (****))” and the “maximum fold (Fold) increase of Smn protein” value (from here on “maximum fold (Fold) increase”) is “***** (a fold increase >1.65 is indicated by five stars (*****))”.

As to `Cc1cn2cc(-c3cc4ccc(C5CCN(C6COC6)CC5)cc4c(=O)o3)nc2c(C)n1` [Cpd 119, 3-(6,8-dimethylimidazo[1,2-a]pyrazin-2-yl)-7-[1-(oxetan-3-yl)piperidin-4-yl]-1H-isochromen-1-one], the melting point fell in the range of 225 to 227 °C. Besides, the EC (1.5-fold) in data set [1] was 0.1 to 0.3 µM. Further, in the data set on Smn protein, the “EC1.5x for Smn protein expression” value was “*** (an EC1.5× between >0.3 nM and ≦1 nM is indicated by three stars (***))”; the “maximum fold (Fold) increase” value is on record as “***** (a fold increase >1.65 is indicated by five stars (*****))”.

`C[C@H]1CN(c2ccc3cc(-c4cn5cccc(Cl)c5n4)oc(=O)c3c2)CCN1` [Cpd 60, 3-(8-chloroimidazo[1,2-a]pyridin-2-yl)-7-[(3S)-3-methylpiperazin-1-yl]-1H-isochromen-1-one] gave a melting point of 314 to 316 °C. For the same compound, the EC (1.5-fold) in data set [1] lay in the range of 0.3 to 1 µM. In addition, in the data set on Smn protein, the “maximum fold (Fold) increase” value was “*** (a fold increase between >1.35 and ≦1.5 is indicated by three stars (***))”.

As to `Cc1cn2cc(-c3cc4ccc(C5=CCN(C6CCC6)CC5)cc4c(=O)o3)nc2c(C)n1` [Cpd 94, 7-(1-cyclobutyl-1,2,3,6-tetrahydropyridin-4-yl)-3-(6,8-dimethylimidazo[1,2-a]pyrazin-2-yl)-1H-isochromen-1-one], the melting point fell in the range of 252 to 254 °C. Besides, the EC (1.5-fold) in data set [1] was at most 0.1 µM. In addition, in the data set on Smn protein, the “EC1.5x for Smn protein expression” value was “*** (an EC1.5× between >0.3 nM and ≦1 nM is indicated by three stars (***))”; the “maximum fold (Fold) increase” value is “***** (a fold increase >1.65 is indicated by five stars (*****))”.

`CCN1CCN(c2ccc3cc(-c4cc5c(C)nc(C)cn5c4)oc(=O)c3c2)CC1` [Cpd 77, 3-(1,3-dimethylpyrrolo[1,2-a]pyrazin-7-yl)-7-(4-ethylpiperazin-1-yl)-1H-isochromen-1-one]: the melting point lay within 202 to 204 °C. Further, in data set [1], the EC (1.5-fold) was at most 0.1 µM. In addition, in the data set on Smn protein, the “EC1.5x for Smn protein expression” value is “*** (an EC1.5× between >0.3 nM and ≦1 nM is indicated by three stars (***))”; the “maximum fold (Fold) increase” value is “*** (a fold increase between >1.35 and ≦1.5 is indicated by three stars (***))”.

Consider `Cc1cn2cc(-c3cc4ccc(C5CCN(C)CC5)cc4c(=O)o3)nc2c(C)n1` [Cpd 114, 3-(6,8-dimethylimidazo[1,2-a]pyrazin-2-yl)-7-(1-methylpiperidin-4-yl)-1H-isochromen-1-one], for which the melting point was 248 to 250 °C. In data set [1], the EC (1.5-fold) is at most 0.1 µM. For the same compound, in the data set with Smn protein, the “EC1.5x for Smn protein expression” value is “**** (an EC1.5×≦0.3 nM is indicated by four stars (****))” and the “maximum fold (Fold) increase” value was “***** (a fold increase >1.65 is indicated by five stars (*****))”.

Take `Cc1cn2cc(-c3cc4ccc(N5C[C@@H](C)N[C@@H](C)C5)cc4c(=O)o3)nc2cn1` [Cpd 58, 7-[(3R,5S)-3,5-dimethylpiperazin-1-yl]-3-(6-methylimidazo[1,2-a]pyrazin-2-yl)-1H-isochromen-1-one]: the melting point is 279 to 281 °C. Further, the EC (1.5-fold) in data set [1] is at most 0.1 µM. Also, in the data set on Smn protein, the “EC1.5x for Smn protein expression” value was “**** (an EC1.5×≦0.3 nM is indicated by four stars (****))” and the “maximum fold (Fold) increase” value is recorded as “***** (a fold increase >1.65 is indicated by five stars (*****))”.

For the compound `CCN1CC=C(c2ccc3cc(-c4cn5cc(C)nc(C)c5n4)oc(=O)c3c2)CC1` [Cpd 90, 3-(6,8-dimethylimidazo[1,2-a]pyrazin-2-yl)-7-(1-ethyl-1,2,3,6-tetrahydropyridin-4-yl)-1H-isochromen-1-one], the melting point is 227 to 229 °C. In data set [1], the EC (1.5-fold) is at most 0.1 µM. For the same compound, in the data set on Smn protein, the “EC1.5x for Smn protein expression” value is recorded as “**** (an EC1.5×≦0.3 nM is indicated by four stars (****))” and the “maximum fold (Fold) increase” value is given as “***** (a fold increase >1.65 is indicated by five stars (*****))”.

With `COc1cccc(-c2cc3ccc(N4CCCNCC4)cc3c(=O)o2)c1` [Cpd 21, 7-(l,4-diazepan-1-yl)-3-(3-methoxyphenyl)-1H-isochromen-1-one], the melting point is 148 to 150 °C. Also, the EC (1.5-fold) in data set [1] is 3 to 30 µM. The “maximum fold (Fold) increase” value in the data set with Smn protein was “* (A maximum fold increase of ≦1.2 is indicated by one star (*))”.

Regarding `O=c1oc(-c2cn3cccc(Cl)c3n2)cc2ccc(N3CCNCC3)cc12` [Cpd 59, 3-(8-chloroimidazo[1,2-a]pyridin-2-yl)-7-(piperazin-1-yl)-1H-isochromen-1-one], the melting point lay in the range of 343 to 345 °C. Besides, in data set [1], the EC (1.5-fold) is 1 to 3 µM. Further, the “maximum fold (Fold) increase” value with Smn protein is “** (a fold increase between >1.2 and ≦1.35 is indicated by two stars (**))”.

`CCc1nc(C)cn2cc(-c3cc4ccc(N5C[C@@H](C)N[C@@H](C)C5)cc4c(=O)o3)nc12` [Cpd 154, 7-[(3R,5S)-3,5-dimethylpiperazin-1-yl]-3-(8-ethyl-6-methylimidazo[1,2-a]pyrazin-2-yl)-1H-isochromen-1-one] displayed a melting point of 239 to 244 °C. Besides, the EC (1.5-fold) in data set [1] was at most 0.1 µM. In the data set with Smn protein, the “EC1.5x for Smn protein expression” value is “**** (an EC1.5×≦0.3 nM is indicated by four stars (****))” and the “maximum fold (Fold) increase” value is recorded as “***** (a fold increase >1.65 is indicated by five stars (*****))”.

As to `Cc1cn2cc(-c3cc4ccc(N5C[C@@H](C)N[C@@H](C)C5)cc4c(=O)o3)nc2c(C)n1` [Cpd 64, 3-(6,8-dimethylimidazo[1,2-a]pyrazin-2-yl)-7-[(3R,5S)-3,5-dimethylpiperazin-1-yl]-1H-isochromen-1-one], the melting point lay within 244 to 246 °C. The EC (1.5-fold) in data set [1] was at most 0.1 µM. In the data set with Smn protein, the “EC1.5x for Smn protein expression” value is reported as “**** (an EC1.5×≦0.3 nM is indicated by four stars (****))” and the “maximum fold (Fold) increase” value is listed as “***** (a fold increase >1.65 is indicated by five stars (*****))”.

In the case of `Cc1cn2cc(-c3cc4ccc(N5CCN(C6CC6)CC5)cc4c(=O)o3)nc2c(C)n1` [Cpd 84, 7-(4-cyclopropylpiperazin-1-yl)-3-(6,8-dimethylimidazo[1,2-a]pyrazin-2-yl)-1H-isochromen-1-one], the melting point is 260 °C (dec.). Further, the EC (1.5-fold) in data set [1] lay within 0.1 to 0.3 µM. In the data set with Smn protein, the “EC1.5x for Smn protein expression” value was “*** (an EC1.5× between >0.3 nM and ≦1 nM is indicated by three stars (***))”; the “maximum fold (Fold) increase” value is recorded as “***** (a fold increase >1.65 is indicated by five stars (*****))”.

With `COCCN1CCN(c2ccc3cc(-c4cn5cc(C)nc(C)c5n4)oc(=O)c3c2)CC1` [Cpd 85, 3-(6,8-dimethylimidazo[1,2-a]pyrazin-2-yl)-7-[4-(2-methoxyethyl)piperazin-1-yl]-1H-isochromen-1-one], the melting point fell in the range of 192 to 194 °C. Also, the EC (1.5-fold) in data set [1] was 0.1 to 0.3 µM. Moreover, in the data set on Smn protein, the “EC1.5x for Smn protein expression” value was “*** (an EC1.5× between >0.3 nM and ≦1 nM is indicated by three stars (***))”; the “maximum fold (Fold) increase” value is recorded as “***** (a fold increase >1.65 is indicated by five stars (*****))”.

As for `Cc1cn2cc(-c3cc4ccc(N5CCN[C@@H](C)C5)cc4c(=O)o3)nc2cn1` [Cpd 57, 3-(6-methylimidazo[1,2-a]pyrazin-2-yl)-7-[(3S)-3-methylpiperazin-1-yl]-1H-isochromen-1-one], the melting point is 242 to 244 °C. The EC (1.5-fold) in data set [1] was at most 0.1 µM. Moreover, in the data set on Smn protein, the “EC1.5x for Smn protein expression” value is given as “**** (an EC1.5×≦0.3 nM is indicated by four stars (****))” and the “maximum fold (Fold) increase” value was “***** (a fold increase >1.65 is indicated by five stars (*****))”.

In the case of `Cc1cn2cc(-c3cc4ccc(N5CCN6CCC[C@@H]6C5)cc4c(=O)o3)nc2cn1` [Cpd 68, 7-[(8aR)-hexahydropyrrolo[1,2-a]pyrazin-2(1H)-yl]-3-(6-methylimidazo[1,2-a]pyrazin-2-yl)-1H-isochromen-1-one], the melting point is 255 to 257 °C. Also, the EC (1.5-fold) in data set [1] was at most 0.1 µM. For the same compound, in the data set with Smn protein, the “EC1.5x for Smn protein expression” value was “* (An EC1.5× for Smn protein expression between >3 μM and <10 μM is indicated by one star (*))”; the “maximum fold (Fold) increase” value was “**** (a fold increase between >1.5 and ≦1.65 is indicated by four stars (****))”.

Regarding `COc1ccc(-c2cc3ccc(N4CCNCC4)cc3c(=O)o2)cc1` [Cpd 24, 3-(4-methoxyphenyl)-7-(piperazin-1-yl)-1H-isochromen-1-one], the melting point was in the range of 235 to 238 °C. Moreover, the EC (1.5-fold) in data set [1] is 0.1 to 0.3 µM. Besides, in the data set with Smn protein, the “EC1.5x for Smn protein expression” value is “*** (an EC1.5× between >0.3 nM and ≦1 nM is indicated by three stars (***))”; the “maximum fold (Fold) increase” value was “*** (a fold increase between >1.35 and ≦1.5 is indicated by three stars (***))”.

Turning to `C[C@@H]1CN(c2ccc3cc(-c4ccccn4)oc(=O)c3c2)C[C@H](C)N1` [Cpd 5, 7-[(3R,5S)-3,5-dimethylpiperazin-1-yl]-3-(pyridin-2-yl)-1H-isochromen-1-one], the melting point fell in the range of 168 to 170 °C. Further, in data set [1], the EC (1.5-fold) is 1 to 3 µM. In addition, the “maximum fold (Fold) increase” value in the data set on Smn protein is “* (A maximum fold increase of ≦1.2 is indicated by one star (*))”.
